Experimental data taken from patent US10647680B2, “Urea compound, preparation method therefor and medical use thereof” (Ancureall Pharmaceutical (Shanghai) Co., Ltd., priority 2016, dated 2020).
Values joined by “and” are separate entries in the source; they are usually repeats but may differ in a detail not shown here. Equal values may be shown once. Where a name gives a salt, the structure may show the parent alone. Read-outs that look alike come from different tables or passages of the source.

Assays:
[1] = In vivo pharmacokinetics in rats; set-up: species or system rat
Procedure: The pharmacokinetic experiments in rats were performed using compound 77 of the present invention as a representative example.
Procedure: 6 SD male rats (˜200 g, purchased from Shanghai Sippr-BK Experimental Animal Co., Ltd) were selected and divided into two groups according to the experimental design table (Table 9). Animals were administered intravenously and orally. Dosing was performed once on the treating day and the doses were 5 mg/kg and 10 mg/kg, respectively.
Drug formulation method: the required amount of test sample was added to a certain volume of 40% (HP-β-CD) aqueous solution, and then stirred under heating (temperature 25-45° C.) until dissolution, then the same volume of deionized water was added and adjusted to pH 5 with NaOH, to prepare 20% HP-β-CD clear aqueous solution.
For the intravenous administration group, blood samples were taken from jugular veins before administration and 2 min, 5 min, 15 min, 30 min, 1 h, 2 h, 4 h, 6 h, 8 h, and 24 h after administration; for the oral administration group, blood samples were taken from jugular veins before administration and 5 min, 30 min, 1 h, 2 h, 4 h, 6 h, 8 h, 10 h, and 24 h. The collected blood samples were centrifuged to separate plasma within 30 min (centrifugation condition: 8000 rpm, 6 minutes, 2-8° C.). The plasma samples were stored at −80° C. in a freezer before assay. The plasma samples were used for LC-MS/MS method development and sample testing.
The pharmacokinetic parameters (AUC(0-t), AUC(0-∞), T1/2, MRT(0-∞), Cmax, Tmax and F) were calculated using WinNonlin Professional v5.2 (Pharsight USA). In addition, the bioavailability (F) was calculated by the following formula.

[2] = Long-term oral toxicity in mice, effect on blood cells; format: in vivo, mouse; settings: ICR mice; for mortality rate / weight reduced compared with the control group: oral once a day, to the 40th day
Procedure: Study on the long-term oral toxicity in mice was performed with compound 77 of the present invention as a representative example.
Procedure: 6-week-old ICR mice purchased from Shanghai Sippr-BK Experimental Animal Co., Ltd. were selected with half males and half females, and the animals were randomly divided with 6 mice each group. The test and control groups were orally given once a day for 40 consecutive days, respectively. The body weight and physiological and pathological features of the mice were observed and recorded every day. The drug doses of the test group were 500 mg/kg, 350 mg/kg, and 250 mg/kg of the methanesulfonate of compound 77 in 20% HP-β-CD clear aqueous solution, respectively (the formulation method was the same as that of the test example 10), and the control group was the 20% HP-β-CD aqueous solution.

[3] = biological target: T1, hERG potassium ion channel (Homo sapiens, UniProt Q12809); experiment: hERG test (whole cell model); format: cell-based; settings: for Ratio (%): n=3
T1 construct: host or cells: HEK-293
T1 sequence (Q12809 whole entry): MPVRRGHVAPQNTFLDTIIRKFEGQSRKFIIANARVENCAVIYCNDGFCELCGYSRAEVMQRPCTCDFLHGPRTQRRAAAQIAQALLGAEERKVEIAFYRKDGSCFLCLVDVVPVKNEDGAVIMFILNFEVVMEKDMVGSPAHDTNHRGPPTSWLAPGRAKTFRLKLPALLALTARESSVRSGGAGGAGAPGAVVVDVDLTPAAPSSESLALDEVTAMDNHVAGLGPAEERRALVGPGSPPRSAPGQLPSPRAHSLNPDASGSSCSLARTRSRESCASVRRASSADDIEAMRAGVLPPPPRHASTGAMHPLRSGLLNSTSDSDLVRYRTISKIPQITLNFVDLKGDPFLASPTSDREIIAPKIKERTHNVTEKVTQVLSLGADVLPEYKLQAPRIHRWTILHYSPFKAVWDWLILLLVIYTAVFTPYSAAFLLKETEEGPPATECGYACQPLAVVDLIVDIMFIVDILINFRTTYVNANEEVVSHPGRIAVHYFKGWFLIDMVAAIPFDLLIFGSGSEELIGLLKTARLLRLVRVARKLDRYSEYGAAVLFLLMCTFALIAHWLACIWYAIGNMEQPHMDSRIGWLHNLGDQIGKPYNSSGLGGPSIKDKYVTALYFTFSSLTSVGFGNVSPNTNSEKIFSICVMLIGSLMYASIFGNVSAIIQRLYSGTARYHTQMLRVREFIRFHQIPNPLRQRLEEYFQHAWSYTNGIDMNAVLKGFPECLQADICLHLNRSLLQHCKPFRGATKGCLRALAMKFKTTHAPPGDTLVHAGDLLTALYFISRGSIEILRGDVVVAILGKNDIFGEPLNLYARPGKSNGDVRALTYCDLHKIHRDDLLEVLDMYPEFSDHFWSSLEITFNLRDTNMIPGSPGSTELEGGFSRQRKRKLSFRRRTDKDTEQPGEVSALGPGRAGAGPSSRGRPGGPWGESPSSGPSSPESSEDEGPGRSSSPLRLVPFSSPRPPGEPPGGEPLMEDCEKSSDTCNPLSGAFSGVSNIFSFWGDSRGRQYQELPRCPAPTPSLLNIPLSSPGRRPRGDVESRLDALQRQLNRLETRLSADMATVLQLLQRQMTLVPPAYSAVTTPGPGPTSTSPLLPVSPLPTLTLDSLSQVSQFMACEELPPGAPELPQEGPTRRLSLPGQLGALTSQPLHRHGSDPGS
Procedure: The whole cell model hERG test was performed with compound 77 of the present invention as a representative example, 30 uM Quinidine (Sigma) was used as a positive control.
Procedure: hERG potassium ion channel HEK-293 cells (Krius Biology) were over-expressed, and cultured at a 37° C., 5% CO2 incubator. The culture medium was DMEM supplemented with 15% fetal bovine serum and 1% penicillin-streptomycin. The stably transfected cells were inoculated to slides, with a cell density of less than 50%, and cultured overnight. The experimental cells were transferred to an approximately 1 mL bath tank embedded in an inverted microscope platform (Diaphot, Nikon), and the extracellular fluid was perfused at a perfusion rate of 2.7 mL/min. The experiment could be started after stabilization for 5 minutes and precipitation of cells. Membrane current was recorded by HEKAEPC-10 patch clamp amplifier and […] acquisition system (HEKA Instruments Inc., D-67466 Lambrecht/Pfalz Germany). All experiments were completed at room temperature (22-24° C.). During the experiment, a P-97 microelectrode control apparatus (Sutter Instrument Company, One Digital Drive, Novato, Calif. 94949) was used to […] the electrodes (BF150-110-10). The inner diameter of the electrode was 1-1.5 mm, and the inlet resistance after filling with the liquid was 2-4 MQ. Electrophysiological stimulation of the hERG potassium channel: firstly, the membrane voltage was clamped at −80 mV, and cells were given continuous stimulation of 2 s, +20 mV voltage, to activate hERG potassium ion channel and repolarization to −50 mV for 5 s, to generate outward tail current. The stimulation frequency was once every 15 seconds. The current value was the peak value of tail current. By measuring the maximum current value of the treatment group and the control group, the ratio of the maximum current value of the treatment group to the maximum current value of the control group (Mean±SE) was calculated, to evaluate the effect of the test compounds on the hERG potassium ion channel under the test concentration. Statistics and analysis of experimental data were performed by Origin 8.5 (OriginLab Corporation, Northampton, Mass.).

[4] = SD rats, intravenously, 5 mg/kg, individual animals 101-103, listed as methanesulfonate of compound 77, 5 mg/kg
[5] = SD rats, orally, 10 mg/kg, individual animals 201-203, listed as methanesulfonate of compound 77, 10 mg/kg
[6] = male, SD, rat, plasma, iv, 5 mg/kg, intravenously, Mean
[7] = male, SD, rat, plasma, iv, 5 mg/kg, intravenously, individual animals 101-103
[8] = male, SD, rat, plasma, po, 10 mg/kg, orally, Mean
[9] = male, SD, rat, plasma, po, 10 mg/kg, orally, individual animals 201-203
[10] = oral once a day for 40 days, 250-500 mg/kg

With COCCOc1ccc2c(c1)ncn2-c1ccc(NC(=O)Nc2cc(C(C)(C)C)n[nH]2)cc1 [Compound 77 Mesylate, 1-(5-tert-butyl-2H-pyrazol-3-yl)-3-{4-[5-(2-methoxyl-ethoxyl)-benzimidazol-1-yl]-phenyl}-urea] the “AUC(0-t)” value [1, 4] was 14458 ng·h/mL and 13825 ng·h/mL, the “AUC(0-∞)” value [1, 4] was 14501 ng·h/mL and 13969 ng·h/mL and the CL [1, 4] was 345 mL/h/kg and 358 mL/h/kg. The Cmax [1, 4] was 20795 ng/mL and 17312 ng/mL, the “MRT(0-t)” value [1, 4] was 3.86 h and 4.21 h and the Vss [1, 4] was 1355 mL/kg and 1599 mL/kg. The Vz [1, 4] was 1473 mL/kg and 2010 mL/kg, the t½ [1, 4] was 2.96 h and 3.89 h and the “AUC(0-t)” value [1, 5] was 7249 ng·h/mL and 6927 ng·h/mL. The “AUC(0-∞)” value [1, 5] was 7294 ng·h/mL and 7067 ng·h/mL, the Cmax [1, 5] was 1082 ng/mL and 1095 ng/mL and the “MRT(0-t)” value [1, 5] was 5.07 h and 5.45 h. For the same compound, the t½ [1, 5] was 3.36 h and 4.53 h, the AUC(0-t) ([1]; male, SD, rat, plasma, iv, 5 mg/kg, administered intravenously, 5 mg/kg, read-out: AUC(0-t)) was 14400 ng·h/mL and the Cmax ([1]; male, SD, rat, plasma, iv, 5 mg/kg, administered intravenously, 5 mg/kg, read-out: Cmax) was 18700 ng/mL. It also gave an AUC(0-t) ([1]; male, SD, rat, plasma, iv, 5 mg/kg, intravenously, 5 mg/kg, Mean, read-out: AUC(0-t)) of 14400 ng·h/mL, a Cmax ([1]; male, SD, rat, plasma, iv, 5 mg/kg, intravenously, 5 mg/kg, Mean, read-out: Cmax) of 18700 ng/mL and an MRT inf ([1]; male, SD, rat, plasma, iv, 5 mg/kg, intravenously, 5 mg/kg, Mean, read-out: MRT (0-∞)) of 4.27 h. The MRT last ([1]; male, SD, rat, plasma, iv, 5 mg/kg, intravenously, 5 mg/kg, Mean, read-out: MRT(0-t)) was 4.03 h, the Vd ([1]; male, SD, rat, plasma, iv, 5 mg/kg, intravenously, 5 mg/kg, Mean, read-out: Vss) was 1.47 L/kg and the Vd ([1]; male, SD, rat, plasma, iv, 5 mg/kg, intravenously, 5 mg/kg, Mean, read-out: Vz) was 1.8 L/kg. It also gave a half-life ([1]; male, SD, rat, plasma, iv, 5 mg/kg, intravenously, 5 mg/kg, Mean, read-out: t½ (converted)) of 217 min, an AUC(0-t) ([1]; male, SD, rat, plasma, iv, 5 mg/kg, intravenously, 5 mg/kg, individual animals 101-103, read-out: AUC(0-t)) of 14900 ng·h/mL and a Cmax ([1]; male, SD, rat, plasma, iv, 5 mg/kg, intravenously, 5 mg/kg, individual animals 101-103, read-out: Cmax) of 18000 ng/mL. For the same compound, the MRT inf ([1]; male, SD, rat, plasma, iv, 5 mg/kg, intravenously, 5 mg/kg, individual animals 101-103, read-out: MRT (0-∞)) was 4.42 h, the MRT last ([1]; male, SD, rat, plasma, iv, 5 mg/kg, intravenously, 5 mg/kg, individual animals 101-103, read-out: MRT(0-t)) was 4.04 h and the Vd ([1]; male, SD, rat, plasma, iv, 5 mg/kg, intravenously, 5 mg/kg, individual animals 101-103, read-out: Vss) was 1.46 L/kg. It also gave a Vd ([1]; male, SD, rat, plasma, iv, 5 mg/kg, intravenously, 5 mg/kg, individual animals 101-103, read-out: Vz) of 1.91 L/kg, a half-life ([1]; male, SD, rat, plasma, iv, 5 mg/kg, intravenously, 5 mg/kg, individual animals 101-103, read-out: t½ (converted)) of 241 min and an AUC(0-inf) [1, 6] of 14500 ng·h/mL. It also gave a clearance [1, 6] of 5.73 mL/min/kg, an AUC(0-inf) [1, 7] of 15200 ng·h/mL and a clearance [1, 7] of 5.5 mL/min/kg. The AUC(0-t) ([1]; male, SD, rat, plasma, po, 10 mg/kg, administered orally, 10 mg/kg, read-out: AUC(0-t)) was 6770 ng·h/mL, the Cmax ([1]; male, SD, rat, plasma, po, 10 mg/kg, administered orally, 10 mg/kg, read-out: Cmax) was 1050 ng/mL and the AUC(0-t) ([1]; male, SD, rat, plasma, po, 10 mg/kg, orally, 10 mg/kg, Mean, read-out: AUC(0-t)) was 6770 ng·h/mL. It also gave a Cmax ([1]; male, SD, rat, plasma, po, 10 mg/kg, orally, 10 mg/kg, Mean, read-out: Cmax) of 1050 ng/mL, an MRT last ([1]; male, SD, rat, plasma, po, 10 mg/kg, orally, 10 mg/kg, Mean, read-out: MRT(0-t)) of 5.38 h and a half-life ([1]; male, SD, rat, plasma, po, 10 mg/kg, orally, 10 mg/kg, Mean, read-out: t½ (converted)) of 232 min. It also gave an AUC(0-t) ([1]; male, SD, rat, plasma, po, 10 mg/kg, orally, 10 mg/kg, individual animals 201-203, read-out: AUC(0-t)) of 6140 ng·h/mL, a Cmax ([1]; male, SD, rat, plasma, po, 10 mg/kg, orally, 10 mg/kg, individual animals 201-203, read-out: Cmax) of 977 ng/mL and an MRT last ([1]; male, SD, rat, plasma, po, 10 mg/kg, orally, 10 mg/kg, individual animals 201-203, read-out: MRT(0-t)) of 5.61 h. It also gave a half-life ([1]; male, SD, rat, plasma, po, 10 mg/kg, orally, 10 mg/kg, individual animals 201-203, read-out: t½ (converted)) of 222 min, an AUC(0-inf) [1, 8] of 6860 ng·h/mL and an MRT [1, 8] of 5.68 h. It also gave an AUC(0-inf) [1, 9] of 6210 ng·h/mL, an MRT [1, 9] of 5.9 h and a Tmax ([1]; male, rat, plasma, po, SD rats, orally, 10 mg/kg, Mean) of 2 h. For the same compound, the bioavailability ([1]; male, rat, plasma, SD rats, oral 10 mg/kg versus intravenous 5 mg/kg) was 23.5%, the “effect on the number of other blood cells” value [2, 10] was “no significant effect” and the “reticulocytes decreased by” value [2, 10] was 10%-30%. The mortality rate ([2]; 250 mg/kg) was 0%, the “weight reduced compared with the control group” value (from here on “weight reduced”) ([2]; 250 mg/kg) was 8.2% and the mortality rate ([2]; 350 mg/kg) was 16.7%. For the same compound, the “weight reduced” value ([2]; 350 mg/kg) was 23.1%, the mortality rate ([2]; 500 mg/kg) was 66.7% and the “weight reduced” value ([2]; 500 mg/kg) was 34.7%.

In the case of COCCOc1ccc2c(c1)ncn2-c1ccc(NC(=O)Nc2cc(C(C)(C)C)n[nH]2)cc1 [Compound 77, 1-(5-tert-butyl-2H-pyrazol-3-yl)-3-{4-[5-(2-methoxyl-ethoxyl)-benzimidazol-1-yl]-phenyl}-urea], the “Ratio (%)” value ([3]; Concentration 0.3 uM) is reported as 94.96%, the “Ratio (%)” value ([3]; Concentration 1 uM) is reported as 86.71% and the “Ratio (%)” value ([3]; Concentration 3 uM) is reported as 75.85%. The “Ratio (%)” value ([3]; Concentration 10 uM) was 53.71%, the “Ratio (%)” value ([3]; Concentration 30 uM) was 37.47% and the “blocking effect on the hERG potassium ion channel” value ([3]; within the range of test concentrations) was “a certain blocking effect”.
